Laboratory results: ChEMBL document CHEMBL4406826, “Discovery of δ-sultone-fused pyrazoles for treating Alzheimer's disease: Design, synthesis, biological evaluation and SAR studies” (Eur J Med Chem, 2019)
Calls of active or inactive are those of the source.

How the values were obtained:
[1] = target: Cholinesterase (Equus caballus) (UniProt P81908); experiment: Reversible inhibition of equine serum BChE at 0.4 to 1 uM using varying levels of butyrylcholine iodide as substrate
Cholinesterase [2] = target: T1, Cholinesterase (Equus caballus, UniProt P81908); experiment: Inhibition of equine serum BuChE using butyrylthiocholine iodide as substrate preincubated with enzyme for 20 mins followed by substrate addition by Ellman's method
[3] = Octanol-PBS buffer partition coefficient, log P of the compound incubated for 24 hrs measured at pH 7.4 by shake-flask method; format: physicochemical
[4] = target: Acetylcholinesterase (Electrophorus electricus) (UniProt O42275); experiment: Inhibition of electric eel AChE at 20 uM using acetylthiocholine iodide as substrate preincubated with enzyme for 20 mins followed by substrate addition by Ellman's method relative to control
Acetylcholinesterase = Acetylcholinesterase (Electrophorus electricus, UniProt O42275); experiment: Inhibition of electric eel AChE using acetylthiocholine iodide as substrate preincubated with enzyme for 20 mins followed by substrate addition by Ellman's method
[5] = target: Cholinesterase (Equus caballus) (UniProt P81908); experiment: Non-competitive inhibition of equine serum BChE at 1 to 5 uM using varying levels of butyrylcholine iodide as substrate by Line weaver Burk reciprocal plot analysis
PC-12 = experiment: Neuroprotective activity against H2O2-induced cytotoxicity in rat PC12 cells assessed as increase in cell viability at 10 to 25 uM pretreated for 3 hrs followed by H2O2 stimulation in continuous presence of compound for 24 hrs by MTT assay relative to control; format: functional
[6] = target: Cholinesterase (Equus caballus) (UniProt P81908); experiment: Mixed inhibition of equine serum BChE assessed as decrease in Vmax at 1 to 5 uM using varying levels of butyrylthiocholine iodide as substrate by Line weaver Burk reciprocal plot analysis
[7] = target: Cholinesterase (Equus caballus) (UniProt P81908); experiment: Mixed inhibition of equine serum BChE assessed as increase in substrate Km at 1 to 5 uM using varying levels of butyrylthiocholine iodide as substrate by Line weaver Burk reciprocal plot analysis
Cholinesterase [8] = target: T1, Cholinesterase; experiment: Inhibition of equine serum BChE using varying levels of butyrylthiocholine iodide as substrate by Line weaver Burk reciprocal plot analysis
[9] = Cytotoxicity against rat PC12 cells assessed as cell viability at 5 to 50 uM measured after 24 hrs by MTT assay; format: cell-based, PC-12; conditions: read-out: Activity
[10] = Cytotoxicity against human HepG2 cells assessed as cell viability at 5 to 50 uM measured after 24 hrs by MTT assay; format: cell-based; conditions: read-out: Activity
[11] = target: Cholinesterase (Equus caballus) (UniProt P81908); experiment: Mixed inhibition of equine serum BChE assessed as increase in substrate Km at 0.5 to 2 uM using varying levels of butyrylthiocholine iodide as substrate by Line weaver Burk reciprocal plot analysis
[12] = target: Cholinesterase (Equus caballus) (UniProt P81908); experiment: Mixed inhibition of equine serum BChE assessed as decrease in Vmax at 0.5 to 2 uM using varying levels of butyrylthiocholine iodide as substrate by Line weaver Burk reciprocal plot analysis

T1 sequence (P81908 whole entry): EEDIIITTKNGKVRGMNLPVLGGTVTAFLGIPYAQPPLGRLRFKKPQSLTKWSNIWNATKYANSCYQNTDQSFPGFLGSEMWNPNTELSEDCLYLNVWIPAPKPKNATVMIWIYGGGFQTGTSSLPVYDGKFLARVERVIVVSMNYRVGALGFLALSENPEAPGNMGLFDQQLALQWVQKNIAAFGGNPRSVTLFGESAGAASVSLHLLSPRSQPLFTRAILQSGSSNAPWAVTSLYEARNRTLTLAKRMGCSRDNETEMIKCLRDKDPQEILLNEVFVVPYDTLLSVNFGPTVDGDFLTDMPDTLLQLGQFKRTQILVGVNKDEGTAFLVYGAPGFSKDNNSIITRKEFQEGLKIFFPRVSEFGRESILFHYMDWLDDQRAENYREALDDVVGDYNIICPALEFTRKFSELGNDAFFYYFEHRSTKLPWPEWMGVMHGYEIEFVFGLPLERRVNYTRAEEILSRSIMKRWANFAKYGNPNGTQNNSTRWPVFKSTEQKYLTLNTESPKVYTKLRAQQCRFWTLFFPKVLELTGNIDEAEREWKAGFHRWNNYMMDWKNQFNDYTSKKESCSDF
Cholinesterase (Equus caballus), sequence (P81908 whole entry): as above
Acetylcholinesterase (Electrophorus electricus), sequence (O42275 24-633 limits assumed): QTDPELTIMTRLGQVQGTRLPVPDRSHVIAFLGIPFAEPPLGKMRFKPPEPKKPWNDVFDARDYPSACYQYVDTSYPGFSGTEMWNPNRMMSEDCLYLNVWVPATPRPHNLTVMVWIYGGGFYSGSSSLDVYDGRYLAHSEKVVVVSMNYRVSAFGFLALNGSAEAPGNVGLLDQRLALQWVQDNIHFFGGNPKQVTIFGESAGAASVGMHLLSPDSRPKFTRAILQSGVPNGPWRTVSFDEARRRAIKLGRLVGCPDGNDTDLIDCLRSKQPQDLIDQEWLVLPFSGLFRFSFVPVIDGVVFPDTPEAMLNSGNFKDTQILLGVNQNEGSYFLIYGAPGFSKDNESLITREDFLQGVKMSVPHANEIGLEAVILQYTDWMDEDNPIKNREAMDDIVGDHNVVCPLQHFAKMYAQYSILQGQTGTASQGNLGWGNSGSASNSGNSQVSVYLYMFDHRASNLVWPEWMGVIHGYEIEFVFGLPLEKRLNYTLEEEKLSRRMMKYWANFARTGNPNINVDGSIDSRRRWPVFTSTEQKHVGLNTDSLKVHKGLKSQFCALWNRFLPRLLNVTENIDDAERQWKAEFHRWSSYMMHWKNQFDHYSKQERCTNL
Acetylcholinesterase, sequence (O42275 whole entry): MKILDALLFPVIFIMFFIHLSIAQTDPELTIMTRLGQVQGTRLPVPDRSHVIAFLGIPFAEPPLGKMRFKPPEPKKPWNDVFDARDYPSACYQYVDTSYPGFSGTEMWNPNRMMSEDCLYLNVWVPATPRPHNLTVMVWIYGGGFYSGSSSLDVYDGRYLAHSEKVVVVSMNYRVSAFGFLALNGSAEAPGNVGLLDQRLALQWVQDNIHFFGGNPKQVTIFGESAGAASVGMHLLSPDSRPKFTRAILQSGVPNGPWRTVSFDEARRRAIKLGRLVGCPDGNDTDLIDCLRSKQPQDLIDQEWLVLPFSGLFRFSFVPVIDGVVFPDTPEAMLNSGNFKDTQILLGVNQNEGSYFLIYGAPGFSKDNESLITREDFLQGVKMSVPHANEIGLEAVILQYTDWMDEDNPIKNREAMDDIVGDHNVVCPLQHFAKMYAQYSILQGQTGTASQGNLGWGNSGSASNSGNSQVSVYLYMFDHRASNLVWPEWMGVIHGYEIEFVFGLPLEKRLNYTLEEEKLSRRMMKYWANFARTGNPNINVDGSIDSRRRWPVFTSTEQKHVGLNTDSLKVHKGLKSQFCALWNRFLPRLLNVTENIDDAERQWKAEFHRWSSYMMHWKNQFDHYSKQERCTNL

| Structure (SMILES) | IC50 (Cholinesterase [2]) | logD at 24 h [3] | inhibition [4] | also measured |
| --- | --- | --- | --- | --- |
| O=S1(=O)CCc2c(C3CC3)nn(-c3ccccc3F)c2O1 | 0.199 µM | 2.09 | inactive | inhibition [1]: Active |
| Cc1nn(-c2ccccc2)c2c1C(/C=C/c1cccc(C#N)c1)CS(=O)(=O)O2 (configuration not stated) | 10.6 µM | – | – | IC50 (Acetylcholinesterase): 16.3 µM |
| COc1ccc(-c2nn(-c3ccccc3Cl)c3c2CCS(=O)(=O)O3)cc1 | 0.42 µM | 3.04 | inactive | inhibition [5]: Active; Activity (PC-12): >70%; inhibition [6]: Active; inhibition [7]: Active; Ki (Cholinesterase [8]): 0.06 µM; viability at 24 h, up to 50 µM [9]: > 90%; viability at 24 h, 50 µM [10]: > 90% |
| CC1=NN2C(=O)Oc3c(Cl)cc(Cl)cc3C2C1 (configuration not stated) | – | – | – | IC50 (Acetylcholinesterase): > 20 µM |
| COc1ccc(-c2nn(-c3ccccc3F)c3c2C(c2ccc(Br)c(C)c2)CS(=O)(=O)O3)cc1 (configuration not stated) | 4.33 µM | 2.91 | inactive | – |
| COc1ccc(-c2nn(-c3ccccc3F)c3c2CCS(=O)(=O)O3)cc1 | 0.46 µM | 2.62 | inactive | inhibition [11]: Active; inhibition [1]: Active; Activity (PC-12): >70%; Ki (Cholinesterase [8]): 0.145 µM; viability at 24 h, up to 50 µM [9]: > 90%; viability at 24 h, 50 µM [10]: > 90%; inhibition [12]: Active |
| O=S1(=O)CC(c2ccc(F)cc2)c2c(C3CC3)nn(-c3ccccc3F)c2O1 (configuration not stated) | 7.76 µM | 1.76 | inactive | – |
| Cc1cc(C2CS(=O)(=O)Oc3c2c(C2CC2)nn3-c2ccccc2Cl)ccc1Br (configuration not stated) | 3.77 µM | 2.53 | inactive | – |
| Cc1nn(-c2ccccc2F)c2c1CCS(=O)(=O)O2 | 1.8 µM | 1.86 | inactive | – |
| O=S1(=O)CC(c2ccc(F)cc2)c2c(C3CC3)nn(-c3ccccc3Cl)c2O1 (configuration not stated) | 6.02 µM | 2.04 | inactive | – |
